Several values for one entry are separate records, joined by “and”; a condition that tells them apart may be missing. Identical values can stand only once.
Key:
Format in all cases: in vivo, beagle dogs
[1] = Observation for evaluation of diarrhea (stool property); design: key to stool property: -: normal stool; ±: slightly soft stool; +: soft stool; ++: mild diarrhea; +++: diarrhea; settings: for stool property: one line per animal
Excerpt: In Test Example 1, the stool property was monitored every day and rated on the 5-point scale of -: normal, ±: slightly soft stool, +: soft stool, ++: mild diarrhea, +++: diarrheal.

α2-PI = assay: Assay of α2-PI activity in plasma after oral administration; settings: oral once a day for 3 days (0, 24, 48 hr), 116 mg/kg compound A as printed, Fig. 1
Protocol: The drugs were administered to groups of 4 beagle dogs (22-23 months old, body weights 9-11 kg) and the blood was serially sampled (-120, 0, 6, 24, 48, 72, 96, and 168 hr) for assay of α2-PI activity. One capsule of either compound A or compound B was administered orally once a day for 3 days (at 0, 24, and 48 hr) [116 mg/kg compound A or 300 mg/kg compound B (equimolar to compound A)]. Blood sampling was carried out by drawing 9 volumes of blood into a vacuum blood sampling tube containing 1 volume of 3.8% sodium citrate and, after gentle mixing, each blood sample was centrifuged (3,000 rpm x 10 min.) to separate the plasma. The plasma α2-PI activity was assayed with Test Team APL 2 Kit using the cleavage of the synthetic chromogenic substrate S-2251 as an indicator by plasmin.

fibrin clot = assay: Fibrinolytic action: lysis of 125I-fibrin clot made from plasma obtained 48 hr after drug administration; settings: for Fibrinolysis (%) : (24 hr after addition of Urokinase): N 4, mean S.E.
Protocol: The plasma obtained 48 hr after drug administration in Test Example 1 was used in this test.
To 0.35 ml of plasma was added 40 µl ^125I-fibrinogen (185 kBq/ml) and the mixture was dispensed to 3 test tubes, 0.1 ml per tube. To each of the test tubes was added 10 µl each of 100 µU/ml thrombin solution and 0.5 M calcium chloride solution and, after stirring, each tube was incubated at 37°C for 30 min to prepare a fibrin clot. Then, 2% albumin-saline containing 0, 50 or 100 U of urokinase was added to the tubes, 1 ml per tube. The tubes were incubated at 37°C and at 0, 3, 6, 9, 21 and 24 hr of incubation, 50µl of the supernatant was taken in a RIA tube and using a γ-counter (Packard Japan, A5424), the amount of the ^125I-fibrin degradated product was determined.

CCCC(=O)OCC1C(OC(=O)CCC)C(OC(=O)CCC)C(OC(=O)CCC)CN1C (centres unmarked) [Compound A, 2,3,4,5-tetra-O-butyryl-N-methyl-moranoline]
stool property ([1]; Day 1, 300mg/kg oral once a day for 3 days, 300 mg/kg): + and - and ± and +++
stool property ([1]; Day 3, 300mg/kg oral once a day for 3 days, 300 mg/kg): +++ and ± (2×) and -
stool property ([1]; Day 4, 300mg/kg oral once a day for 3 days, 300 mg/kg): ± (2×) and - (2×)
stool property ([1]; Day 7, 300mg/kg oral once a day for 3 days, 300 mg/kg): ± and - (3×)
diarrhea-inducing effect ([1]; summary of Table 2): less remarkable in diarrhea-inducing effect than compound B
α2-PI activity (α2-PI): decreased α2-PI activity significantly
Fibrinolysis (%) : (24 hr after addition of Urokinase) (fibrin clot; Urokinase 0U, 300mg/kg): 143 ± 27%
Fibrinolysis (%) : (24 hr after addition of Urokinase) (fibrin clot; Urokinase 50U, 300mg/kg): 278 ± 31%
Fibrinolysis (%) : (24 hr after addition of Urokinase) (fibrin clot; Urokinase 100U, 300mg/kg): 342 ± 30%
fibrinolytic activity (fibrin clot; urokinase addition level of 100 U): significantly accelerated the fibrinolytic activity

CN1C[C@H](O)[C@@H](O)[C@H](O)[C@H]1CO [Compound B, N-methylmoranoline, reference compound]
stool property ([1]; Day 1, 116mg/kg oral once a day for 3 days, 116 mg/kg): +++ (2×) and ++ and +
stool property ([1]; Day 3, 116mg/kg oral once a day for 3 days, 116 mg/kg): +++ (3×) and + +
stool property ([1]; Day 4, 116mg/kg oral once a day for 3 days, 116 mg/kg): + (2×) and ± (2×)
stool property ([1]; Day 7, 116mg/kg oral once a day for 3 days): -
Fibrinolysis (%) : (24 hr after addition of Urokinase) (fibrin clot; Urokinase 0U, 116mg/kg): 172 ± 56%
Fibrinolysis (%) : (24 hr after addition of Urokinase) (fibrin clot; Urokinase 50U, 116mg/kg): 213 ± 27%
Fibrinolysis (%) : (24 hr after addition of Urokinase) (fibrin clot; Urokinase 100U, 116mg/kg): 340 ± 49%

Reference: patent EP0733364A1, “MEDICINAL COMPOSITION FOR CIRCULATORY ORGAN” (NIPPON SHINYAKU COMPANY, LIMITED, priority 1993, dated 1995)
